Here are results for 1 compound from US8329422B2, “Analysis of circulating tumor cells, fragments, and debris” (Veridex LLC, priority 2001, dated 2012).

Holding throughout (type): cell-based
Data set [1] can be described thus: Viability of LnCaP cells by trypan blue exclusion after culture with paclitaxel. The following applies: human, LnCaP prostate cell line; LnCaP cells cultured with 40 nM paclitaxel for 72 hours. The protocol: (§1) To investigate the effect of apoptosis induced by cytotoxic agents on flow cytometric and CELLSPOTTER® analysis of CTC, cells from the prostate cell line LnCaP were cultured in the presence or absence of 40 nM paclitaxel for 72 hours. […] The treated and untreated LnCaP cells were spiked into blood of healthy donors, selected by the ferrofluid methods described above, and analyzed by the CELLSPOTTER® system.

The subject of data set [2] is LnCaP cells. The experiment in a line: CELLSPOTTER analysis of paclitaxel treated LnCaP cells spiked into blood of healthy donors (model to mimic tumor cell death). The note with it: immunomagnetically selected. The protocol:
as §1

Data set [3] concerns LnCaP cells. Put plainly: M30 Cytodeath antibody staining of caspase-cleaved cytokeratin 18. The note with it: paclitaxel treated LnCaP cells.
Description: Cells of the prostate cell line LnCaP were cultured with or without paclitaxel and spiked into blood of healthy donors.

With `CC(=O)O[C@H]1C(=O)[C@@]2(C)[C@H]([C@H](OC(=O)c3ccccc3)[C@]3(O)C[C@H](OC(=O)[C@H](O)[C@@H](NC(=O)c4ccccc4)c4ccccc4)C(C)=C1C3(C)C)[C@]1(OC(C)=O)CO[C@@H]1C[C@@H]2O` [paclitaxel], the viability at 72 h, 40 nM in data set [1] amounted to 33%. Moreover, the “signs of apoptosis (morphology, punctate cytokeratin staining)” value in the data set with LnCaP cells [2] is listed as “displayed signs of apoptosis”. The “staining with M30 Cytodeath antibody (early apoptosis)” value in the data set on LnCaP cells [3] was “stained with M30”.
